Laboratory results from ChEMBL document CHEMBL1131940 (Bioorg Med Chem Lett, 1999).

Each molecule was assayed against Estrogen receptor (Homo sapiens, UniProt Q92731+P03372). Conditions: mcf-7.
Description: In vitro inhibition of estrogen-stimulated MCF-7 cell proliferation

Row | SMILES | IC50
1 | O=C(c1ccc(NCCN2CCCCC2)cc1)c1c(-c2ccc(O)cc2)sc2cc(O)ccc12 | 2 nM
2 | O=C(c1ccc(CCCN2CCCCC2)cc1)c1c(-c2ccc(O)cc2)sc2cc(O)ccc12 | 10 nM
3 | CN(CCN1CCCCC1)c1ccc(C(=O)c2c(-c3ccc(O)cc3)sc3cc(O)ccc23)cc1 | 10 nM
4 | O=C(c1ccc(S(=O)(=O)CCN2CCCCC2)cc1)c1c(-c2ccc(O)cc2)sc2cc(O)ccc12 | 30 nM
5 | COc1ccc(-c2sc3cc(OC)ccc3c2C(=O)c2ccc(S(=O)(=O)CCN3CCCCC3)cc2)cc1 | > 1000 nM
6 | COc1ccc(-c2sc3cc(OC)ccc3c2C(=O)c2ccc(CCCN3CCCCC3)cc2)cc1 | 1000 nM
7 | O=C(c1ccc(SCCN2CCCCC2)cc1)c1c(-c2ccc(O)cc2)sc2cc(O)ccc12 | 0.9 nM
